We go through 1 molecule from patent publication US9050341B2, “Methods of treating drug resistant and other tumors by administering 6,7-dialkoxy quinazoline derivatives” (NATCO PHARMA LIMITED, priority 2009, dated 2015).

Common to all, as to assay: KinomeScan kinase profiling
What all share (type): binding

The target of one experiment is T1, ABL1 (Q252H) (Homo sapiens, UniProt P00519, Q252H).
T1 construct: host or cells: E. coli host derived from BL21 (T7 phage lysate)
Summed up:
(§1)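 Kinases were expressed as T7 phage fusions in a BL21-derived E. coli host and the cleared lysates were used. Ligand beads were blocked with biotin and buffer (1% BSA, 0.05% Tween 20, 1 mM DTT). Compounds came from 40× DMSO stocks, and phage in the eluates was titred by qPCR.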

The next experiment addresses T2, ACVR1 (Homo sapiens, UniProt Q04771).
T2 construct: host or cells: E. coli host derived from BL21 (T7 phage lysate)
In a few lines:
as §1

A further experiment concerns the target T3, ASK1 (Homo sapiens, UniProt Q99683).
T3 construct: purchased Ambit Biosciences Corp (KinomeScan); host or cells: E. coli host derived from the BL21 strain, T7 phage
Summed up:
as §1

The next experiment addresses T4, AURKB (Homo sapiens, UniProt Q96GD4).
T4 construct: purchased Ambit Biosciences Corp (KinomeScan); host or cells: E. coli host derived from the BL21 strain, T7 phage
Summed up: as §1

The next experiment concerns the target T5, BMPR2 (Homo sapiens, UniProt Q13873).
T5 construct: purchased Ambit Biosciences Corp (KinomeScan); host or cells: E. coli host derived from the BL21 strain, T7 phage
In a few lines: as §1

In a further experiment the target is T6, BRK (Homo sapiens, UniProt Q13882).
T6 construct: purchased Ambit Biosciences Corp (KinomeScan); host or cells: E. coli host derived from the BL21 strain, T7 phage
In a few lines:
as §1

For a further experiment, the target named is T7, CLK2 (Homo sapiens, UniProt P49760).
T7 construct: host or cells: T7 phage in E. coli (BL21-derived)
In a few lines:
as §1

A further experiment concerns the target T8, DDR1 (Homo sapiens, UniProt Q08345).
T8 construct: purchased Ambit Biosciences Corp (KinomeScan); host or cells: T7 phage in E. coli host derived from BL21
Summed up: as §1

The target in experiment [1] is T9, EGFR (L747-E749del, A750P) (Homo sapiens, UniProt P00533, A750P/DEL747-749).
T9 construct: purchased Ambit Biosciences Corp (KinomeScan); host or cells: T7 phage in E. coli host derived from BL21
In a few lines: as §1

For a further experiment, the target named is T10, EGFR (S752-1759del) (Homo sapiens, UniProt P00533, DEL752-759).
T10 construct: host or cells: E. coli host derived from BL21, T7 phage lysate
Summed up: as §1

For the next experiment, the target named is T11, EPHA5 (Homo sapiens, UniProt P54756).
T11 construct: host or cells: E. coli host derived from BL21, T7 phage lysate
T11 sequence (P54756 25-1037): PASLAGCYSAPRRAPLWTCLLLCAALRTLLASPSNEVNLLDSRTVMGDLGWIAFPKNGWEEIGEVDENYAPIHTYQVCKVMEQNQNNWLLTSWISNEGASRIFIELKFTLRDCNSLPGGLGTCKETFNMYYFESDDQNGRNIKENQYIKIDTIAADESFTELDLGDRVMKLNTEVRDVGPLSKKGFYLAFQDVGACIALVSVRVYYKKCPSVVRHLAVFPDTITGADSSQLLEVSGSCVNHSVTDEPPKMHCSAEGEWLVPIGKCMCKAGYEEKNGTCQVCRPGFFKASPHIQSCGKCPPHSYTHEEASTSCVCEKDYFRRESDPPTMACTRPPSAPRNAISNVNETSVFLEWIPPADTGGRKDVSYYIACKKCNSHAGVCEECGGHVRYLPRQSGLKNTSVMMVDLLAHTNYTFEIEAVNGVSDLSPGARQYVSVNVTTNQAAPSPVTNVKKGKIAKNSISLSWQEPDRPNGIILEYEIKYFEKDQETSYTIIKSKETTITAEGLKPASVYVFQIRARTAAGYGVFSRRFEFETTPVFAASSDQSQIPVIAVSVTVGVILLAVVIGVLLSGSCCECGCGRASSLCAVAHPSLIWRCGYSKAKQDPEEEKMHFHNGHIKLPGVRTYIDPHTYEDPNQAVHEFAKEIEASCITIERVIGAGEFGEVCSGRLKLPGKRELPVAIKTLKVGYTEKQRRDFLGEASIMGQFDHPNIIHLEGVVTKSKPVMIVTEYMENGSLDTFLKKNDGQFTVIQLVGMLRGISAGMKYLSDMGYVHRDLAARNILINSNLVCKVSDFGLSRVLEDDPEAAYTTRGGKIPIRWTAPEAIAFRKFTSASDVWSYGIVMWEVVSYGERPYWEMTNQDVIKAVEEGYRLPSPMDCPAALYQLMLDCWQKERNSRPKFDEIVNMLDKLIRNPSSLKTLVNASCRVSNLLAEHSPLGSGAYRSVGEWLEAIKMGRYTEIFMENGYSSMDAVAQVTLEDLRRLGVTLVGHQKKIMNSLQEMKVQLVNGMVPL
Summed up: as §1

The target of another experiment is T12, ERK1 (Homo sapiens, UniProt P27361).
T12 construct: host or cells: E. coli host derived from BL21, T7 phage lysate
In a few lines:
as §1

A further experiment addresses T13, FLT3 (Homo sapiens, UniProt P36888).
T13 construct: host or cells: E. coli host derived from BL21, infected with T7 phage
In a few lines:
as §1

A further experiment deals with T14, KIT (D816V) (Homo sapiens, UniProt P10721, D816V).
T14 construct: host or cells: T7 phage in E. coli host derived from BL21
T14 sequence (P10721 26-976 D816V): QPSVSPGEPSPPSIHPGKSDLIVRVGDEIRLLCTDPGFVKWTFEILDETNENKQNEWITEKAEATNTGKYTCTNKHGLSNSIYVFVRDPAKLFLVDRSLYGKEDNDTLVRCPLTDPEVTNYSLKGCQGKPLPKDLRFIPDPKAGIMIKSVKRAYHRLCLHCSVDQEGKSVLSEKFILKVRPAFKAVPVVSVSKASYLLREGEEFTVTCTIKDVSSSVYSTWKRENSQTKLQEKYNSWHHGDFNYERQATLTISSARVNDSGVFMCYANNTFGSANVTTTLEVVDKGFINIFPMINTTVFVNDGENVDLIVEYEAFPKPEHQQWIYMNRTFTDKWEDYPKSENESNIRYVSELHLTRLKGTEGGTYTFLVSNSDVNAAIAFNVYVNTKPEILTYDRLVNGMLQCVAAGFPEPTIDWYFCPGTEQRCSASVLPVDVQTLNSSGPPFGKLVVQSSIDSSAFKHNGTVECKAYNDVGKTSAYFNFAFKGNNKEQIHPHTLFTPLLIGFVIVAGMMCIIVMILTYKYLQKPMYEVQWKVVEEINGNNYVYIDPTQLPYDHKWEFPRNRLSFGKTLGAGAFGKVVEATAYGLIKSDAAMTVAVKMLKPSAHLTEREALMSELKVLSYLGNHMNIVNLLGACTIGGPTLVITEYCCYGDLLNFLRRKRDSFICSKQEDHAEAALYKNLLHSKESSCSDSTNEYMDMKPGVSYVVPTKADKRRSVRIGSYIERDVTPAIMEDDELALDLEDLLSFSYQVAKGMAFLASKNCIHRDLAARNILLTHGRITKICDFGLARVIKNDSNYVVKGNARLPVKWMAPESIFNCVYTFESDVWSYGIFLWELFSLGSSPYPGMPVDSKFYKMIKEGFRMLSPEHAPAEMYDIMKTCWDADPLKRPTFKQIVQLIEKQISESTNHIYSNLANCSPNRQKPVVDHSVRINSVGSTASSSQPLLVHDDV
Summed up:
as §1

For another experiment, the target named is T15, KIT (V559D, V654A) (Homo sapiens, UniProt P10721, V559D/V654A).
T15 construct: host or cells: T7 phage in E. coli host derived from BL21
T15 sequence (P10721 26-976 V559D/V654A): as the sequence (P10721 26-976 D816V) above, with V534D, V629A, V791D counted along it
In a few lines:
as §1

The next experiment has as its target T16, MAP4K4 (Homo sapiens, UniProt O95819).
T16 construct: host or cells: E. coli derived from BL21, infected with T7 phage
Summed up: as §1

In a further experiment the target is T17, MST1 (Homo sapiens, UniProt Q13043).
T17 construct: host or cells: T7 phage in E. coli host derived from BL21
T17 sequence (Q13043 whole entry): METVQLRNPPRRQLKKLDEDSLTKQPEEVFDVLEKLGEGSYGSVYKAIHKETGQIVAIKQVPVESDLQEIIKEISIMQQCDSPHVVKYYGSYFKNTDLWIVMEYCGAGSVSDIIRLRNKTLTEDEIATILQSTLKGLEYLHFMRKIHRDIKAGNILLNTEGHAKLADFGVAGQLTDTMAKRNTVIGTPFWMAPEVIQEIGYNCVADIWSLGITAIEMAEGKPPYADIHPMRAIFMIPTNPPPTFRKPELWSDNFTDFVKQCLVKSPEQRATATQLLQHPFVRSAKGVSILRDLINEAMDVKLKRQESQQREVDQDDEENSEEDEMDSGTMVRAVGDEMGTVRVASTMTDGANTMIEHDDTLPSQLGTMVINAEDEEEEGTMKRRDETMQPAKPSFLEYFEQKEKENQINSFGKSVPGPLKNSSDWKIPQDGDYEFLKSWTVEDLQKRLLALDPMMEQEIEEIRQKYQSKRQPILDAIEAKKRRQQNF
Summed up: as §1

The next experiment deals with T18, PCTK2 (Homo sapiens, UniProt Q00537).
T18 construct: host or cells: E. coli host derived from the BL21 strain, infected with T7 phage
Summed up:
as §1

Another experiment deals with T19, PFTK1 (Homo sapiens, UniProt O94921).
T19 construct: host or cells: E. coli host derived from the BL21 strain, infected with T7 phage
Summed up: as §1

Another experiment concerns the target T20, PRKCE (Homo sapiens, UniProt Q02156).
T20 construct: purchased Ambit Biosciences Corp (KinomeScan); host or cells: E. coli host derived from BL21, infected with T7 phage
In a few lines:
as §1

The target of a further experiment is T21, RAF1 (Homo sapiens, UniProt P04049).
T21 construct: host or cells: E. coli host derived from BL21, T7 phage lysate
Summed up:
as §1

A further experiment has as its target T22, p38-beta (Homo sapiens, UniProt Q15759).
T22 construct: host or cells: E. coli host derived from the BL21 strain, infected with T7 phage
In a few lines:
as §1

A further experiment has as its target T23, p38-delta (Homo sapiens, UniProt O15264).
T23 construct: host or cells: E. coli host derived from the BL21 strain, infected with T7 phage
Summed up:
as §1

T5 sequence (Q13873 27-1038): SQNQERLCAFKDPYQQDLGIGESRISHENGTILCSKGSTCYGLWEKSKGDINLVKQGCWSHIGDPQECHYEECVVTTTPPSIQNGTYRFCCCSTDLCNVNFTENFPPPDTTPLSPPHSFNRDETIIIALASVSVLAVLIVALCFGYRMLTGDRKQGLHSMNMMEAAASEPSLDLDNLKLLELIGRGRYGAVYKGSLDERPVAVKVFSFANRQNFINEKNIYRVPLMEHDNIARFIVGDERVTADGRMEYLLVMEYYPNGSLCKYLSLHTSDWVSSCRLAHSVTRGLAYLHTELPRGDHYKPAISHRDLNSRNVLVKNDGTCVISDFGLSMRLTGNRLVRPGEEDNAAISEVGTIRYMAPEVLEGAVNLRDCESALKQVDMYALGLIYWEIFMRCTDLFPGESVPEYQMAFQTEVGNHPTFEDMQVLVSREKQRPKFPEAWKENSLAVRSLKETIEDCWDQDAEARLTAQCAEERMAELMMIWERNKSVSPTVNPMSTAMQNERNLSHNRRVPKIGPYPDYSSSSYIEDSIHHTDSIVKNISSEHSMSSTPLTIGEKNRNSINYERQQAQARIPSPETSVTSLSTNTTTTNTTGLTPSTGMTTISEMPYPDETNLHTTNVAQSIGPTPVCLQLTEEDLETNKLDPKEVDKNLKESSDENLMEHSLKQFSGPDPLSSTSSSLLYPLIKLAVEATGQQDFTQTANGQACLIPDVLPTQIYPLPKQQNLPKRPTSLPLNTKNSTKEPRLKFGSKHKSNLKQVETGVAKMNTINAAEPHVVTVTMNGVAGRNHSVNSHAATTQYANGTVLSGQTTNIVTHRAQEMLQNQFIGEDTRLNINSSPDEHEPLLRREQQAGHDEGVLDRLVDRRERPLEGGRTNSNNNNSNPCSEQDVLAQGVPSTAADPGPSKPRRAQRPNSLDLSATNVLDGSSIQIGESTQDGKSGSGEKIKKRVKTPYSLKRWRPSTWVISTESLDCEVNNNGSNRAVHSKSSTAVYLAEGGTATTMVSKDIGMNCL
T4 sequence (Q96GD4 whole entry): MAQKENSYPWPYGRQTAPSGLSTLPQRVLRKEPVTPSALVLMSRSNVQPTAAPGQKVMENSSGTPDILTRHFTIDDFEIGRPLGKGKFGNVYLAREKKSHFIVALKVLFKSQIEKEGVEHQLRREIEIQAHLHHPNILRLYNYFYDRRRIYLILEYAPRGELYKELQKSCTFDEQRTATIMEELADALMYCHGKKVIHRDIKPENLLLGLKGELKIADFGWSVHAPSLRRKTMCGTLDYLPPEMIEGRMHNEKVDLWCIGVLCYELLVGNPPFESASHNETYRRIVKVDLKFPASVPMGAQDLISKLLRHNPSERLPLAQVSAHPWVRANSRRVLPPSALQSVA
T23 sequence (O15264 whole entry): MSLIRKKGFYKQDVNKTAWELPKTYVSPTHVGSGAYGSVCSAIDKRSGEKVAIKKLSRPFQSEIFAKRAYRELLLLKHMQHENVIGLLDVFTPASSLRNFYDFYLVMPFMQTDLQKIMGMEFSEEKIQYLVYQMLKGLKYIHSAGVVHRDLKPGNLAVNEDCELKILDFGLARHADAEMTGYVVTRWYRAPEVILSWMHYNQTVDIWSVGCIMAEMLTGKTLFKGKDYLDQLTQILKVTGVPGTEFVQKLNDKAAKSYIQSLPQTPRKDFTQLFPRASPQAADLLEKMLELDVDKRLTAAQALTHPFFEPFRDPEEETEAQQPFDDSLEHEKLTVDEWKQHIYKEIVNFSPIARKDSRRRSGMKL
T2 sequence (Q04771 21-509): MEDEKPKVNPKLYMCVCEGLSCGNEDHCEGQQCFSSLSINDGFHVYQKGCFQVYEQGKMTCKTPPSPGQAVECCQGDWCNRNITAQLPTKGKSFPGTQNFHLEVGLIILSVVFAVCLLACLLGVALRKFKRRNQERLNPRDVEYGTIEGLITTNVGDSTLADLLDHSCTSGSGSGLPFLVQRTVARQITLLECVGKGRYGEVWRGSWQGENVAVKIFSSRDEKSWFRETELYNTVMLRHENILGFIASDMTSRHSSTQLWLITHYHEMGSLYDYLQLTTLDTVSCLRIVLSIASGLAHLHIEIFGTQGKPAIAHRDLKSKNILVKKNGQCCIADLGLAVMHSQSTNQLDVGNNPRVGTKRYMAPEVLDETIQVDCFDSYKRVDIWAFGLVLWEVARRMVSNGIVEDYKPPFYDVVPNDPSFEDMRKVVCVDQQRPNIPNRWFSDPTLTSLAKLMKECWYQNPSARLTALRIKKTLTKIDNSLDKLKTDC

As for `C#Cc1cccc(Nc2ncnc3cc(OC)c(OCCCN4CCOCC4)cc23)c1` [NRC-2694, N-(3-ethylnylphenyl)-7-methoxy-6-[3-(4-morpholinyl)propoxy]-4-quinazolinamine], the “% Ctrl @ 10000 nM” value on ABL1 (Q252H) worked out at 15 % Ctrl; at ACVR1 it was 61 % Ctrl; on ASK1 it was 100 % Ctrl; at AURKB it was 56 % Ctrl; on BMPR2, 100 % Ctrl; on BRK, 46 % Ctrl. Besides, the “% Ctrl @ 10000 nM” value at CLK2 is 64 % Ctrl; at DDR1 it was 39 % Ctrl; in [1], 0 % Ctrl; on EGFR (S752-1759del) it was 0 % Ctrl; at EPHA5, 86 % Ctrl; on ERK1 it was 98 % Ctrl. Moreover, the “% Ctrl @ 10000 nM” value at FLT3 stood at 49 % Ctrl; at KIT (D816V), 17 % Ctrl; on KIT (V559D, V654A), 47 % Ctrl; at MAP4K4, 20 % Ctrl; on MST1 it was 100 % Ctrl; at PCTK2, 72 % Ctrl. The “% Ctrl @ 10000 nM” value on PFTK1 stood at 71 % Ctrl; at PRKCE, 65 % Ctrl; at RAF1, 100 % Ctrl; at p38-beta, 100 % Ctrl; on p38-delta it was 100 % Ctrl.
